For the test, the system named is SARS-CoV-2 clinical isolates D614G. It counts as cell-based.

`CN1CCCC(n2nc(Cc3ccc(Cl)cc3)c3ccccc3c2=O)CC1` (centres unmarked) [Azelastine]: the midpoint of inhibition, the IC50, lay at 5.75 µM.

Consider `CC(CN1c2ccccc2Sc2ccccc21)N(C)C` (centres unmarked) [Promethazine], for which the midpoint of inhibition, the IC50, lay at 9.22 µM.
